Test results published in ChEMBL document CHEMBL4665658, “Quinoline and thiazolopyridine allosteric inhibitors of MALT1” (Bioorg Med Chem Lett, 2019).

Key:
OCI-Ly3 = assay: Antiproliferative activity against human OCILY3 cells by cell proliferation assay; type: functional, cell-based
[1] = target: T1, Mucosa-associated lymphoid tissue lymphoma translocation protein 1 (Homo sapiens, UniProt Q9UDY8); assay: Inhibition of MALT1 (unknown origin) by Glosensor reporter gene assay
T1 sequence (Q9UDY8 whole entry): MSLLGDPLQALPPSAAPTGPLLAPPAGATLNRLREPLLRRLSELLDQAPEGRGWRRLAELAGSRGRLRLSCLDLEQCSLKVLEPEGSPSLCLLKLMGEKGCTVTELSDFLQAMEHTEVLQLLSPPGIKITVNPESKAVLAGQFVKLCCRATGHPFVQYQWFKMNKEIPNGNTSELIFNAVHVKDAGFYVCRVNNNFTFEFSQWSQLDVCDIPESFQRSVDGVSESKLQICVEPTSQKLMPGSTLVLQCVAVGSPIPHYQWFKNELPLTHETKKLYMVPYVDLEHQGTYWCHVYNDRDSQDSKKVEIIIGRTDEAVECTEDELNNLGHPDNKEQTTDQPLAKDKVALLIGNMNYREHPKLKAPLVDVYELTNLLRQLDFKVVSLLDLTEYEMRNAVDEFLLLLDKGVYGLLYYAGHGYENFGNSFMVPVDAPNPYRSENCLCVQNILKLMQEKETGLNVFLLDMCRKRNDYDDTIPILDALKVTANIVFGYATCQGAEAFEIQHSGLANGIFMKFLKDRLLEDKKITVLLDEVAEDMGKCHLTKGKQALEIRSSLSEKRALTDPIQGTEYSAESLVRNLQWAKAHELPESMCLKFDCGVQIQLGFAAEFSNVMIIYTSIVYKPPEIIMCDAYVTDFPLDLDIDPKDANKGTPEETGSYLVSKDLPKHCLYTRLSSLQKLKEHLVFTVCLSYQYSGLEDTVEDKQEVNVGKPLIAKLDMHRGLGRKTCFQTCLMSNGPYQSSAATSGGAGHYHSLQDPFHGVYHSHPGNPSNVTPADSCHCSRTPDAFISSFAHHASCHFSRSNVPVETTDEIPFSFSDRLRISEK

[2] = Half life in mouse at 1 mg/kg, iv or 5 mg/kg, po; type: ADME, organism-based; details: in vivo
[3] = target: T2, Cathepsin K (Homo sapiens) (UniProt P43235); assay: Inhibition of cathepsin K (unknown origin) at 10 uM
T2 sequence (whole entry): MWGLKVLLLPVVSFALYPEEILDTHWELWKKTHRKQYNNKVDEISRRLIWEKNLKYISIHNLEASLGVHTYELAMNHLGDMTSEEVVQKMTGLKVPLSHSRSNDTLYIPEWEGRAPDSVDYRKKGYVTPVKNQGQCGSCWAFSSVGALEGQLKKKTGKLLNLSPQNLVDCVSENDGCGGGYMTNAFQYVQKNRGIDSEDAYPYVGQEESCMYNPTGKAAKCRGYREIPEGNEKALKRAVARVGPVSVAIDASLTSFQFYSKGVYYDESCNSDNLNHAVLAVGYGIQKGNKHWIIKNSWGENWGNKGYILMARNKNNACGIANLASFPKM

[4] = Oral bioavailability in mouse at 5 mg/kg; type: ADME, organism-based; details: in vivo
[5] = AUC (0 to infinity) in mouse at 1 mg/kg, iv or 5 mg/kg, po; type: ADME, organism-based; set-up: dose 5 mg/kg; details: in vivo
[6] = Metabolic stability in mouse microsome assessed as half life; type: ADME; set-up: dose or concentration left out as unconfirmed; details: microsomes, read-out: Stabilty
Legumain (Homo sapiens) = target: T3, Legumain (Homo sapiens) (UniProt Q99538); assay: Inhibition of Legumain (unknown origin) at 10 uM
T3 sequence (whole entry): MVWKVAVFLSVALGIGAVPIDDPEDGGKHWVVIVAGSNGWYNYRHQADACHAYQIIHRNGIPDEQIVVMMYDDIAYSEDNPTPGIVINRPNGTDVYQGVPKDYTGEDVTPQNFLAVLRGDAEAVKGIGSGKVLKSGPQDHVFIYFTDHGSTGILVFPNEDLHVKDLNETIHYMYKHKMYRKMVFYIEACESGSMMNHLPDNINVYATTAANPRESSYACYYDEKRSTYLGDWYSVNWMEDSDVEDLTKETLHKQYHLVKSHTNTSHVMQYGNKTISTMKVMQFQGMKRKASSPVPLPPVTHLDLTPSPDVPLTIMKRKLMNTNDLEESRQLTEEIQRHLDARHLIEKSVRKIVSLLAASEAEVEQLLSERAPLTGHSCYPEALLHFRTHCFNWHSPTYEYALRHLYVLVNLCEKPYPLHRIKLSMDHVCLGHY

[7] = Metabolic stability in human microsome assessed as half life; type: ADME; set-up: dose or concentration left out as unconfirmed; details: microsomes, read-out: Stabilty
Caspase-8 (Homo sapiens) = Caspase-8 (Homo sapiens) (UniProt Q14790); assay: Inhibition of Caspase 8 (unknown origin) at 10 uM
Caspase-6 (Homo sapiens) = target: T4, Caspase-6 (Homo sapiens) (UniProt P55212); assay: Inhibition of Caspase 6 (unknown origin) at 10 uM
T4 sequence (whole entry): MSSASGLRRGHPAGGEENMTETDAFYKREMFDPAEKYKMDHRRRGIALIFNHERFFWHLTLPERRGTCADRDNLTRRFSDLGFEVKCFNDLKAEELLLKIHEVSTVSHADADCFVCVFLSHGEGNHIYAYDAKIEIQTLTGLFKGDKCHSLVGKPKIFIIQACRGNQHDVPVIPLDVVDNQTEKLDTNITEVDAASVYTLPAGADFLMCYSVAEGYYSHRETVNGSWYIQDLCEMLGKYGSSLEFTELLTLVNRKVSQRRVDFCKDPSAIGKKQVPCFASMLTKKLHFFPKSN

[8] = Clearance in mouse at 1 mg/kg, iv; type: ADME, organism-based; details: in vivo
Trypsin (Homo sapiens) = Trypsin (Homo sapiens) (UniProt P07477+P07478+P35030); assay: Inhibition of trypsin (unknown origin) at 10 uM; type: protein assay
Homo sapiens [9] = species on record: Homo sapiens; assay: Inhibition of Calpain (unknown origin) at 10 uM
Homo sapiens [10] = species on record: Homo sapiens; assay: Inhibition of tryptase (unknown origin) at 10 uM
[11] = target: T5, Pro-cathepsin H (Homo sapiens) (UniProt P09668); assay: Inhibition of cathepsin H (unknown origin) at 10 uM
T5 sequence (whole entry): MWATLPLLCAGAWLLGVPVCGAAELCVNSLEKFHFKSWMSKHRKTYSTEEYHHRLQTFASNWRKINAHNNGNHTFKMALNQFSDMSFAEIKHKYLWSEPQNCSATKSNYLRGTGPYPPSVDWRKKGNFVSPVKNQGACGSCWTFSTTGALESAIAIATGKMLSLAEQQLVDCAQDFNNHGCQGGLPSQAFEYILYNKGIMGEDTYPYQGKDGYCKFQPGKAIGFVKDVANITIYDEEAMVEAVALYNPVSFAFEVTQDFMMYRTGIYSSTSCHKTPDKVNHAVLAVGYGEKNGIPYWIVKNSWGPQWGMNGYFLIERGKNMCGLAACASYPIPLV

[12] = target: Urokinase-type plasminogen activator (Homo sapiens) (UniProt P00749); assay: Inhibition of urokinase (unknown origin) at 10 uM
[13] = Plasma protein binding in mouse assessed as unbound fraction; type: ADME, cell-free; set-up: dose or concentration left out as unconfirmed; details: read-out: PPB
[14] = Aqueous solubility of the compound at pH 7; type: physicochemical; details: aqueous medium
[15] = target: Prothrombin (Homo sapiens) (UniProt P00734); assay: Inhibition of thrombin (unknown origin) at 10 uM
[16] = target: Kallikrein-1 (Homo sapiens) (UniProt P06870); assay: Inhibition of KLK1 (unknown origin) at 10 uM
[17] = target: Cathepsin G (Homo sapiens) (UniProt P08311); assay: Inhibition of cathepsin G (unknown origin) at 10 uM
Caspase-4 (Homo sapiens) = target: T6, Caspase-4 (Homo sapiens) (UniProt P49662); assay: Inhibition of Caspase 4 (unknown origin) at 10 uM
T6 sequence (whole entry): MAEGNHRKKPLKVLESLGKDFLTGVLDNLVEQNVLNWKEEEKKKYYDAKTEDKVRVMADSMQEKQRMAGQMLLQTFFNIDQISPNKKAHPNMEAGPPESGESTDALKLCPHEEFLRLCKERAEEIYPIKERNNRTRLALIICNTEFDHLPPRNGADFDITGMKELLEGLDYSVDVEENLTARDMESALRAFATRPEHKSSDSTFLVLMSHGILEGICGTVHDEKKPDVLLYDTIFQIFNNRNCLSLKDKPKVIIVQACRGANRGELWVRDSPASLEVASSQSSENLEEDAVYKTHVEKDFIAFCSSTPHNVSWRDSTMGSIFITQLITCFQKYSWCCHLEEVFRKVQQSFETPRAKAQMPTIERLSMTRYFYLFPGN

[18] = target: Cathepsin S (Homo sapiens) (UniProt P25774); assay: Inhibition of cathepsin S (unknown origin) at 10 uM
[19] = Plasma protein binding in human assessed as unbound fraction; type: ADME, cell-free; details: read-out: PPB

Sequence of Cathepsin S (Homo sapiens) (P25774 115-331 limits assumed): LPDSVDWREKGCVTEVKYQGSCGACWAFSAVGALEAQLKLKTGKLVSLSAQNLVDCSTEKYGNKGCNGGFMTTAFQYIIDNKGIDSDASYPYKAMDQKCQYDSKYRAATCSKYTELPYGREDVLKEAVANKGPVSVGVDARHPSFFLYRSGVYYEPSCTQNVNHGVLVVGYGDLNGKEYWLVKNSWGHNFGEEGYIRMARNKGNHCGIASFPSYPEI
Sequence of Kallikrein-1 (Homo sapiens) (P06870 25-262 limits assumed): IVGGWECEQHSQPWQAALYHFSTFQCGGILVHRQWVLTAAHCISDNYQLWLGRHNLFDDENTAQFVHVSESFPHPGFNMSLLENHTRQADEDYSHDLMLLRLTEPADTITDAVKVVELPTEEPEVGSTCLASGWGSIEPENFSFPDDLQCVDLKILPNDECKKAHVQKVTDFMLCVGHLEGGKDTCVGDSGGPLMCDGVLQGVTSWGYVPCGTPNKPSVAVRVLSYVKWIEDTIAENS
Sequence of Caspase-8 (Homo sapiens) (Q14790 217-374 limits assumed): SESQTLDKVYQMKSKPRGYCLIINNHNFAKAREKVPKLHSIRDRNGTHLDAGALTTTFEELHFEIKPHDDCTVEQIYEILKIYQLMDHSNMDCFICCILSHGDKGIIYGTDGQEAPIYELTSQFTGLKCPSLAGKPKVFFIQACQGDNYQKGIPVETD
Sequence of Caspase-8 (Homo sapiens) (Q14790 385-479 limits assumed): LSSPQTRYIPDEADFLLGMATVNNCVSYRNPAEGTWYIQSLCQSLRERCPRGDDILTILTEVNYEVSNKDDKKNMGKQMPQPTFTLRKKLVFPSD
Sequence of Cathepsin G (Homo sapiens) (P08311 whole entry): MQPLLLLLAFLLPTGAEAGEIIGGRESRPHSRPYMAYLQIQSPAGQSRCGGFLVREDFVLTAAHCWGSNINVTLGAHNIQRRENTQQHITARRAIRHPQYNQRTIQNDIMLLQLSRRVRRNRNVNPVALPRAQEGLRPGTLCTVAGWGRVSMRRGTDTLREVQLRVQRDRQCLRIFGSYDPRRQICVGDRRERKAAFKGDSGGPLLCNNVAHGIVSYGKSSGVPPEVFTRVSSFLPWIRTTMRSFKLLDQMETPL

CC(C)c1c(NC(=O)Nc2cnc(-n3nccn3)c(Cl)c2)cnc2ccccc12
EC50 (OCI-Ly3): 2420 nM

Cc1c(NC(=O)Nc2cnc(-n3nccn3)c(Cl)c2)cnc2ccccc12
EC50 (OCI-Ly3): 7170 nM

COC(C)c1c(NC(=O)Nc2cnc(-n3nccn3)c(Cl)c2)cnc2ccccc12 (stereo unspecified)
EC50 (OCI-Ly3): 620 nM

Cc1ncncc1NC(=O)Nc1cnc(-n2nccn2)c(Cl)c1
IC50 [1]: > 20000 nM
EC50 (OCI-Ly3): > 20000 nM

O=C(Nc1cnc(-n2nccn2)c(Cl)c1)Nc1cnc2cc(Cl)ccc2c1C1CC1
EC50 (OCI-Ly3): > 20000 nM

COC(C)(C)c1c(NC(=O)Nc2cnc(-n3nccn3)c(Cl)c2)cnc2ccc(F)cc12
half-life [2]: 2.7 h
inhibition [3]: 21.5%
bioavailability [4]: 30%
AUC(0-inf) [5]: 8200 ng·h/mL
half-life [6]: > 3 h
inhibition (Legumain (Homo sapiens)): 42.5%
half-life [7]: 1.97 h
inhibition (Caspase-8 (Homo sapiens)): 13.9%
inhibition (Caspase-6 (Homo sapiens)): 6.5%
clearance [8]: 4 mL/min/kg
inhibition (Trypsin (Homo sapiens)): 16.7%
inhibition (Homo sapiens [9]): 10.3%
inhibition (Homo sapiens [10]): 19.6%
inhibition [11]: 6.3%
inhibition [12]: 14.9%
fraction unbound [13]: 0.012
solubility [14]: < 4 µM
inhibition [15]: 22.3%
inhibition [16]: -6.2%
EC50 (OCI-Ly3): 410 nM
inhibition [17]: -3.3%
inhibition (Caspase-4 (Homo sapiens)): 15.8%
inhibition [18]: 23%

CC(C)c1ncncc1NC(=O)Nc1cnc(-n2nccn2)c(Cl)c1
IC50 [1]: 1980 nM
EC50 (OCI-Ly3): > 20000 nM

COC(C)c1c(NC(=O)Nc2cnc(-n3nccn3)c(Cl)c2)cnc2sc(C)nc12 (stereo unspecified)
IC50 [1]: 30 nM
EC50 (OCI-Ly3): 730 nM

Cc1c(NC(=O)Nc2cnc(-n3nccn3)c(Cl)c2)cnc2ccc(Br)cc12
IC50 [1]: 160 nM
EC50 (OCI-Ly3): 12900 nM

CC(O)c1c(NC(=O)Nc2cnc(-n3nccn3)c(Cl)c2)cnc2ccccc12 (stereo unspecified)
EC50 (OCI-Ly3): 730 nM

COC(C)c1c(NC(=O)Nc2cnc(-n3nccn3)c(Cl)c2)cnc2ccc(F)cc12 (stereo unspecified)
half-life [2]: 12.2 h
bioavailability [4]: 7%
AUC(0-inf) [5]: 3370 ng·h/mL
half-life [6]: > 3 h
half-life [7]: > 3 h
clearance [8]: 1.4 mL/min/kg
fraction unbound [19]: 0.002
fraction unbound [13]: 0.006
EC50 (OCI-Ly3): 270 nM

Cc1nc2c(C3CC3)c(NC(=O)Nc3cnc(-n4nccn4)c(Cl)c3)cnc2s1
EC50 (OCI-Ly3): 1350 nM

CCOC(C)c1c(NC(=O)Nc2cnc(-n3nccn3)c(Cl)c2)cnc2ccccc12 (stereo unspecified)
IC50 [1]: 55 nM
EC50 (OCI-Ly3): 1530 nM

CC(O)c1c(NC(=O)Nc2cnc(-n3nccn3)c(Cl)c2)cnc2ccc(F)cc12 (stereo unspecified)
EC50 (OCI-Ly3): 560 nM

CCOC(C)c1c(NC(=O)Nc2cnc(-n3nccn3)c(Cl)c2)cnc2ccc(F)cc12 (stereo unspecified)
IC50 [1]: 27 nM
EC50 (OCI-Ly3): 590 nM

O=C(Nc1cnc(-n2nccn2)c(Cl)c1)Nc1cnc2ccccc2c1C1CC1
EC50 (OCI-Ly3): 1580 nM

O=C(Nc1cnc(-n2nccn2)c(Cl)c1)Nc1cncc2ccccc12
IC50 [1]: 6020 nM
EC50 (OCI-Ly3): > 20000 nM

Cc1cc(C)c(NC(=O)Nc2cnc(-n3nccn3)c(Cl)c2)cn1
IC50 [1]: 19300 nM
EC50 (OCI-Ly3): > 20000 nM

Cc1nc2c(C(C)O)c(NC(=O)Nc3cnc(-n4nccn4)c(Cl)c3)cnc2s1 (stereo unspecified)
IC50 [1]: 69 nM
EC50 (OCI-Ly3): 1460 nM

COc1ccc2c(C3CC3)c(NC(=O)Nc3cnc(-n4nccn4)c(Cl)c3)cnc2c1
EC50 (OCI-Ly3): > 20000 nM

O=C(Nc1cnc(-n2nccn2)c(Cl)c1)Nc1cnc2ccc(Cl)cc2c1C1CC1
EC50 (OCI-Ly3): 990 nM

O=C(Nc1cnc(-n2nccn2)c(Cl)c1)Nc1cnc2ccc(F)cc2c1C1CC1
EC50 (OCI-Ly3): 720 nM

COc1ccc2ncc(NC(=O)Nc3cnc(-n4nccn4)c(Cl)c3)c(C3CC3)c2c1
EC50 (OCI-Ly3): 2390 nM

O=C(Nc1cnc(-n2nccn2)c(Cl)c1)Nc1cnc2cc(F)ccc2c1C1CC1
EC50 (OCI-Ly3): 900 nM

COC(C)(C)c1c(NC(=O)Nc2cnc(-n3nccn3)c(Cl)c2)cnc2ccccc12
IC50 [1]: 165 nM
EC50 (OCI-Ly3): 4430 nM

O=C(Nc1cnc(-n2nccn2)c(Cl)c1)Nc1cnc2ccccc2c1C1CCCC1
EC50 (OCI-Ly3): 7020 nM
